The nature of series [1]: Clearance (Table V comments). The format is in vitro ADME.
Series [2] relates to retinal ganglion cell axons. Kind of series: Protection of retinal ganglion cell axons from degeneration following optic nerve transection (Table V). It counts as in vivo, rat. The settings on record: ± SEM. The text has this: Efficacy of representative compounds from different immunophilin ligand series in protecting retinal ganglion cell axons from degeneration following optic nerve transection is set forth in Table V.

The next series addresses FKBP12 (Homo sapiens, UniProt P62942). Kind of series: Ki Test Procedure: inhibition of peptidyl-prolyl isomerase (rotamase) activity, chymotrypsin-coupled assay. It counts as biochemical. The settings on record: apparent Ki; read-out: Ki rotomase.
The test system of series [3] is retinal ganglion cells and optic nerve axons. In words: In vivo retinal ganglion cell and optic nerve axon tests after optic nerve transection. Set-up: species or system Sprague Dawley rats. The settings on record: 90 days after transection. An excerpt:
A second groups received the same neuroimmunogphilin FKBP ligand dose for 28 days.
All eyes and optic nerves stumps were removed.

Another series has as its system retinal ganglion cells. Kind of series: Retinal ischemia by raised intraocular pressure. It counts as in vivo, rat. The text has this:
Retinal ganglion cells were retrogradely labeled in adult rate by bilateral injection of fluorogold in their lateral geniculate nuclei. Labeled ganglion cells in the normal rat retina appear as white profiles against the dark background (FIG. 1A). Complete retinal ischemia was produced by infusing normal saline solution into the retinal vitreous cavity of each eye until the intraocular pressure exceeded arterial blood pressure. 28 days after the ischemic episode extensive degeneration of retinal ganglion cell was evidenced by massive reduction in the density of fluorogold labeled cells (FIG. 1B).
Optic nerves from vehicle treated cases examined 28 days after a 1 hour retinal ischemic episode are characterized by a decreased density of optic nerve axons and the appearance of numerous degenerating myelin figures (bright white filled circles).

The next series relates to retina. Kind of series: Streptozotocin induced diabetes, retinal neovascularization and neuron loss. The format is in vivo.
Series [4] concerns streptozotocin-induced diabetic rat. Kind of series: Streptozotocin-induced diabetic sensory neuropathy, hot plate and tail flick. The format is in vivo, Male Wistar rats. The settings on record: lesioned animals treated for 6 weeks at 10 mg/kg s.c. The protocol:
The procedure involved using Male Wistar rats which were given a single injection of streptozotocin (65 mg/kg i.v.). Blood glucose levels were determined weekly for the first three weeks and on the last week of the experiment. Animals were evaluated weekly for signs of sensory neuropathy using the conventional hot plate and tail flick apparatus test procedures.

The test system of another series is aged rodents. Kind of series: Morris watermaze spatial learning and memory in aged rodents. It counts as in vivo, C57BL/6N-Nia mice. The settings on record: daily 10 mg/kg. The text has this: The Morris watermaze is widely used for assessing spatial memory formation and retention in experimental animals. The test depends on the animal's ability to utilize spatial visual information in order to locate a submerged escape platform in a water tank. It is important that the tank itself be as devoid of specific visual features as possible—thus, it is always circular in shape, the sides are kept smooth and in uniform dull colors, and the water is rendered opaque with nontoxic watercolor pigment or powdered milk. This is to ensure that the animal navigates only by the use of more distant visual cues, or by the use of intra-maze cues specifically provided by the experimenter.
The animals' path, speed, and swim time are tracked with a ceiling camera for later computerized analysis. Over the course of several successive trials, spatial learning can therefore be defined as a drop of distance swum, or time elapsed, from placement in the tank until escape onto the invisible platform. […]
Retention testing began after 3 weeks of dosing using the same methods as the acquisition phase. Swim Distances (cm) were analyzed in a 7×5 ANOVA including Groups and Blocks (1-5) as factors in the analysis, treating Blocks as a repeated measure.

Series [5] has as its system retinal ganglion cells and optic nerve axons. In words: In vivo retinal ganglion cell and optic nerve axon tests after optic nerve transection. Further details: species or system Sprague Dawley rats. The settings on record: for ON axon Count: axonal density multiplied by ON area; for Distal optic nerve myelin basic protein Density: shrinkage: cross sectional area vs sham.

Setting [6] is: 28 day treatment beginning 8 weeks after onset of streptozotocin induced diabetes.
[7] abbreviates: GPI 1046 first 14 days, 90 days after transection.
[8] abbreviates: ONT, GPI 1046 14 days, 90 days after transection.
[9] abbreviates: ONT, GPI 1046 28 days, 90 days after transection.

Marks after values point to notes of the source that are not given here.

FKBP12, sequence (P62942 whole entry, species assumed): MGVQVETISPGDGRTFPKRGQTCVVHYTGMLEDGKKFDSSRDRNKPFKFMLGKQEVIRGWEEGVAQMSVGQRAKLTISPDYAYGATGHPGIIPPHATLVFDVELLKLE
Excerpt for FKBP12: The inhibition of the prolyl peptidyl cis-trans isomerase activity of FKBP may be measured as an indicator of this affinity.
These values are obtained as apparent Ki's.
The cis-trans isomerization of an alanine-proline bond in a model substrate, N-succinyl-Ala-Ala-Pro-Phe-p-nitroanilide, is monitored spectrophotometrically in a chymotrypsin-coupled assay, which releases para-nitroanilide from the trans form of the substrate. The inhibition of this reaction caused by the addition of different concentrations of inhibitor is determined, and the data is analyzed as a change in first-order rate constant as a function of inhibitor concentration to yield the apparent Ki values.
In a plastic cuvette are added 950 ml of ice cold assay buffer (25 mM HEPES, pH 7.8, 100 mM NaCl), 10 ml of FKBP (2.5 mM in 10 mM Tris-Cl pH 7.5, 100 mM NaCl, 1 mM dithiothreitol), 25 ml of chymotrypsin (50 mg/ml in 1 mM HCl) and 10 ml of test compound at various concentrations in dimethyl sulfoxide. The reaction is initiated by the addition of 5 ml of substrate (succinyl-Ala-Phe-Pro-Phe-para-nitroanilide, 5 mg/ml in 2.35 mM LiCl in trifluoroethanol).
The absorbance at 390 nm versus time is monitored for 90 seconds using a spectrophotometer and the rate constants are determined from the absorbance versus time data files.

In the case of `O=C(SCCCc1ccccc1)[C@@H]1CCCN1C(=O)NC12CC3CC(CC(C3)C1)C2` [B], the Clearance in series [1] amounted to 7 µL/min. Moreover, in series [2], the “RT97+ RGC axon density 11 days after ON transection (36 ON axon rescued)” value (“RT97+ RGC axon density 11 days” below) is listed as 100.0% ± 5.2% SEM.

As for `O=C(SCCCc1ccccc1)[C@@H]1CCCN1S(=O)(=O)Cc1ccccc1` [C], the Clearance in series [1] is 31.1 µL/min. In series [2], the “RT97+ RGC axon density 11 days” value was 60.4% ± 3.1% SEM.

In the case of `O=C(OCCCCc1ccccc1)[C@@H]1CCCCN1S(=O)(=O)Cc1ccccc1` [D], the “RT97+ RGC axon density 11 days” value in series [2] was 58.4% ± 6.4% SEM.

Consider `CCC(C)(C)C(=O)C(=O)N1CCCCC1C(=O)OC(CCc1ccccc1)CCc1ccccc1` (stereo not shown) [E], for which, in series [1], the Clearance was found to be 41.8 µL/min. The “RT97+ RGC axon density 11 days” value in series [2] is 56.6% ± 9.4% SEM.

With `CCC(C)(C)C(=O)C(=O)N1CCS[C@H]1C(=O)OCCCc1cccnc1` [F], the “RT97+ RGC axon density 11 days” value in series [2] is 55.1% ± 5.9% SEM.

`CCC(C)(C)C(=O)C(=O)N1CCC[C@H]1C(=O)CCCCc1cccnc1` [J] showed a Clearance in series [1] of 1.5 µL/min.

Consider `CCC(C)(C)C(=O)C(=O)N1CCCC[C@H]1C(=O)SCCC(c1ccccc1)c1ccccc1` [K], for which, in series [1], the Clearance came to 4.5 µL/min.

In turn, `CCC(C)(C)C(=O)C(=O)N1CCC[C@H]1C(=O)O` [L] came in with a Clearance in series [1] of 5.2 µL/min. In series [2], the “RT97+ RGC axon density 11 days” value is recorded as 7.8% ± 3.0% SEM.

As for `CCC(C)(C)C(=O)C(=O)N1CCC[C@H]1C(=O)SCCC(c1ccccc1)c1ccccc1` [M], the Clearance in series [1] was 12.5 µL/min. Further, the “RT97+ RGC axon density 11 days” value in series [2] is −6.3% ± 3.9% SEM.

`CN(C)C(=O)N1CCC[C@H]1C(=O)SCCCc1ccccc1` [N]: the Clearance in [1] was 21.9 µL/min.

GPI 1046: on FKBP12, the Ki amounted to 7.5 nM. Further, the Clearance in [1] was found to be 63.8 µL/min. Further, in [2], the “RT97+ RGC axon density 11 days” value is given as 60.5% ± 3.9 SEM. In addition, the “preservation of axons of protected neurons in the proximal stump” value in [3] (Example 14, 10 mg/kg/day s.c. 28 days, RT97 immunohistochemistry) is recorded as “preserved the axons of virtually all protected neurons”. Moreover, in series [3] (GPI 1046 first 28 days), the “fascicular pattern of myelin labeling in the distal stump” value is reported as “dramatic protection of the fascicular pattern of myelin labeling” and the “pattern of myelin degeneration in the proximal stump (myelin basic protein immunohistochemistry)” value was “dramatic preservation of the fascicular staining pattern”. In addition, in [3] (ONT, GPI 1046 28 days), the “% surviving RGCs with ON axons” value is 81.4%, the “ON head area (% sham)” value was found to be 95%* and the “Spared RGC population” value is listed as 28,096*. Moreover, the “increased ON axon density” value in [3] (ONT, GPI 1046 28 days, adjusted for optic nerve diameter) is reported as 5.0X. Further, the “Distal optic nerve myelin basic protein Density: myelin preservation” value in series [3] (ONT, GPI 1046 28 days, cross sectional area multiplied by myelin density) is 99% myelin % myelin preservation. For the same compound, the “Proximal optic nerve myelin basic protein Density” value in series [3] (ONT, GPI 1046 28 days, ± SEM) was 70 ± 6.3 SEM % recovery. For the same compound, the “protection of fluorogold labeled retinal ganglion cells” value with retinal ganglion cells (10 mg/kg s.c. 1 hour prior and 10 mg/kg/day for next four days, 28 days after ischemic episode) is “noticeable protection of a large proportion of the vulnerable ganglion cell population”. The “density of degenerating myelin figures in optic nerve” value with retinal ganglion cells (28 days after 1 hour retinal ischemic episode) is “dramatically decreased the density of degenerating myelin figures”. Besides, the “protection of optic nerve axons from ischemic degeneration” value in the series on retinal ganglion cells (28 days after 1 hour retinal ischemic episode, toluidine blue staining) is given as “protected the majority of optic nerve axons from degeneration”. Further, the “loss of neurons in the INL and GCL” value with retina (28 day treatment beginning 8 weeks after onset of diabetes, vs streptozotocin/vehicle controls) was “appeared to decrease the loss of neurons in both the INL and GCL”. In the series with retina (setting [6]), the “neovascularization in the PR, ONL, OPL and INL” value is “reduced neovascularization”; the “neuronal loss in the ONL” value is reported as “did not appear to protect against neuronal loss in the ONL”. In series [4], the “hot plate and tail flick latency” value was “improvement in latency”. In addition, in the series with aged rodents (aged impaired mice, retention testing after 3 weeks of dosing), the “spatial memory performance (swim distance, retention testing)” value is on record as “significantly enhanced spatial memory performance”. Besides, in the series with aged rodents (F1.69=3.09, P=0.08), the “difference between young and aged impaired GPI-1046 treated groups, retention phase” value is “no longer any statistically significant difference”. The “ganglion cells population spared (perikaryal neuroprotection)” value in [5] (Example 14, 10 mg/kg/day s.c. 28 days, sacrificed 90 days after transection) worked out at 25%. Also, in [5] (setting [7]), the “density of myelin in the distal stump” value is on record as “slightly increase the density of myelin”, the “pattern of myelin degeneration in the proximal stump (myelin basic protein immunohistochemistry)” value is listed as “did not alter the pattern of myelin degeneration” and the “shrinkage of the distal stump” value was “did not protect against shrinkage”. Further, in [5] (GPI 1046 first 28 days, 90 days after transection), the “cross sectional shrinkage of the distal stump” value was “prevented cross sectional shrinkage”. Moreover, in series [5] (setting [8]), the “% RGCs Rescued” value amounted to 5.3%, the “% surviving RGCs with ON axons” value is listed as 33.6%, the “ON head area (% sham)” value amounted to 76% and the “Spared RGC population” value is on record as 20,275. In [5] (setting [8]), the “ON axon Count” value is 6820 and the “Distal optic nerve myelin basic protein Density: shrinkage” value is recorded as 33% shrinkage. Further, in [5] (ONT, GPI 1046 14 days, 90 days after transection, adjusted for optic nerve diameter), the “increased ON axon density” value was determined as 1.5X. For the same compound, the “Distal optic nerve myelin basic protein Density: myelin loss” value in series [5] (ONT, GPI 1046 14 days, 90 days after transection, cross sectional area multiplied by myelin density) was 47% loss. For the same compound, the “ON Axon density” value in series [5] (ONT, GPI 1046 14 days, 90 days after transection, mean ± SEM RT97 labeled axons in 200 μm × 200 μm region) amounted to 569 ± 23. For the same compound, the “Proximal optic nerve myelin basic protein Density” value in [5] (ONT, GPI 1046 14 days, 90 days after transection, ± SEM) was found to be 1.6 ± 3.0 SEM % recovery. Also, the “RGC Counts” value in [5] (ONT, GPI 1046 28 days 10 mg/kg/day sc, 90 days after transection, mean density ± SEM of Fluoro-gold labeled RGC in 400 μm × 400 μm gridfields) is reported as 67.9 ± 5.8. Further, in series [5] (setting [9]), the “ON axon Count” value is on record as 22,861* and the “Distal optic nerve myelin basic protein Density: shrinkage” value is recorded as 56% less % less shrinkage. For the same compound, the “protection of optic nerve axons” value in [5] (proximal stump, GPI 1046 first 14 days after transection, 90 days) is reported as 5.3%.

These data come from patent publication US6337340B1, “Carboxylic acids and isosteres of heterocyclic ring compounds having multiple heteroatoms for vision and memory disorders” (GPI NIL Holdings, Inc., priority 1998, dated 2002).
